Here are results for two compounds from patent EP1481986A1, “Antibiotic 97518, pharmaceutically acceptable salts and compositions, and use thereof” (priority 2003, dated 2004).

The term ED50 denotes the midpoint of the dose-response relation.

Values after ≈ are worked out from the molar mass of the structure shown.

In data set [1] the test system is 1652 Enterococcus faecium cl.isol. Van A. Briefly: Microbroth dilution MIC (NCCLS M7-A5). Format: cell-based. Further details: unit not given here. As to conditions: CAMHB, 10^4 CFU/ml, 35°C, 18-24 hours. The procedure:
(§1) Antimicrobial activity of antibiotic 97518 was determined by using microbroth dilution method with standard U-bottom 96-well plates according to The National Committee for Clinical Laboratory Standards (Methods for Dilution Antimicrobial Susceptibility Tests for Bacteria that Grow Aerobically - Fifth Edition; Approved Standard. NCCLS document M7-A5 Vol.20 No. 2). The strains used were clinical isolates or strains from American Type Culture Collection (ATCC). Powder of antibiotic 97518 was dissolved in DMSO; this solution was further diluted with distilled water. The media used were cation-adjusted Mueller Hinton broth (CAMHB) for Staphylococcus aureus, Moraxella catarrhalis, Enterococci; Todd Hewitt broth (THB) for Streptococcus pyogenes, Streptococcus pneumoniae. Inocula were 10^4 CFU/ml. All strains were incubated at 35°C in air. Incubation time was 18-24 hours. […]
(In general: Dilution methods test growth across graded concentrations, often in twofold steps.)

The test system of data set [2] is 997 Neisseria gonorrhoeae clin.is. Briefly: Microbroth dilution MIC (NCCLS M7-A5). Format: cell-based. As to conditions: 10^4 CFU/ml, 35°C, 18-24 hours. The procedure:
as §1

Data set [3] deals with Streptococcus pyogenes C 203. Nature of the data set: Mouse septicemia protection test (ip infection, survival to day 7). Particulars: mice infected ip with Streptococcus pyogenes C 203, Spearman-Kärber method. The class given is in vivo, Female ICR mice. As to the method: Female ICR mice (Harlan, Italy) weighing 14-16 g were infected intraperitoneally (ip) with 6.5 x 10^2 cells of Streptococcus pyogenes C 203 in 0.5 mL of saline supplemented with 1% peptone. Antibiotic 97518 was administered intravenously (iv) or subcutaneously (sc) within 10-15 min after infection. The 50% effective doses (ED50) were calculated by the Spearman-Kärber method (D.J. Finney. The Spearman-Kärber method. In: Statistical Methods in Biological Assay. (1952) pp. 524-530, Charles Griffin &Co., Ltd., London) from the percentage of animals surviving to day 7 at each dose.

For data set [4], the system named is Staphylococcus aureus strain ATCC6538P (L100). Briefly: Macromolecular synthesis (incorporation of labelled precursors of DNA, RNA, protein and cell wall). Format: cell-based. As to conditions: 20 min at 37°C. The procedure: Staphylococcus aureus strain ATCC6538P (L100) was grown overnight at 37 °C in a rotary bath in Iso-Sensitest Broth (Oxoid Ltd., Basingstoke, Hampshire, England). The culture was diluted up to an OD540 = 0.03 in a 1:1 (v/v) mixture of Iso-Sensitest broth : Davis Mingioli Broth (Difco Labs, Detroit, USA) added with 1g/l of KH2PO4, and was incubated at 37°C. To determine the antibiotic dose/response effects on RNA, DNA, protein and cell wall biosyntheses, the culture was divided in four parts when the optical density reached 0.4. Individual precursors of DNA ([…] ^3H-thymidine + 0.1g/l unlabelled adenosine), RNA (5 mCi/l ^3H-uracil), protein (10 mCi/l ^3H-leucine), and cell wall (1 mCi/l ^3H-N-acetylglucosamine + 3.5 mg/l unlabelled N-acetylglucosamine) biosyntheses were then added, resptectively, to each one of the four aliquots and, immediately after the addition, 100 µl of the resulting culture was dispensed in wells of microtiter plate (96 wells format), containing 10 µl of solutions of antibiotic 97518. After 20 min of incubation at 37°C, 0.1 ml ice-cold 20% (w/v) trichloroacetic acid was added to stop the incorporation. After 30 minutes at 4°, the samples were filtered on Filtermat A (Wallac) using an 96 well Wallac Cell Harvester. The Radioactivity not incorporated was washed away sequentially with water and ethanol. The radioactivity of the biopolymers was counted on the filters, using a Beta Plate System (Wallac).

For data set [5] the following is noted: in vivo.

Consider `C=C1NC(=O)[C@H](C(C)C)NC(=O)[C@H](NC(=O)/C(=C/C)NC(=O)[C@@H](N)[C@@H](C)CC)CSC[C@@H](C(=O)N[C@H]2C(=O)N3CCC[C@H]3C(=O)NCC(=O)N[C@H](C(=O)N[C@H](C(=O)N[C@@H]3CSC[C@@H]4NC(=O)CNC(=O)[C@@H](CSC[C@@H]5NC(=O)[C@H](Cc6c[nH]cn6)NC(=O)[C@@H](CSC[C@@H](C(=O)O)NC5=O)NC4=O)NC(=O)CNC(=O)CNC(=O)CNC(=O)[C@H](CCC(=O)O)NC3=O)[C@@H](C)O)CS[C@H]2C)NC(=O)[C@H](Cc2c[nH]c3ccccc23)NC1=O` [Antibiotic 97518], for which the results for the MIC in data set [1] and in data set [2] were 64 and 64 mg/mL (≈ 29.2 mM), respectively. In addition, the ED50 in data set [3] (administered intravenously (iv) within 10-15 min after infection) and in data set [3] (administered subcutaneously (sc) within 10-15 min after infection) was 3.75 mg/kg throughout. The “other macromolecular syntheses (DNA, RNA, protein)” value in data set [4] (at 2.5 µg/ml (same concentrations)) is given as “only partially inhibited”. For the same compound, the “cell wall synthesis (3H-N-acetylglucosamine incorporation)” value in data set [4] (at 2.5 µg/ml) is given as “blocked cell wall synthesis completely”. Besides, the “not toxic up to (dose)” value in data set [5] is listed as “up to 100 mg/Kg”.
With nisin [reference compound], the “the four macromolecular syntheses (DNA, RNA, protein, cell wall)” value in data set [4] (control experiments) is listed as “inhibited all the four macromolecular syntheses at the same concentration”.
